# Laboratory results reported in US20050032904A1, “Composition and use of allylamine derivatives” (priority 2003, published 2005).
# Columns and labels:
# [1] = system: cell cycle regulatory proteins in HL 60 cells; assay: Western blot of cell cycle regulatory proteins; format: cell-based, human; settings: TB 60-150 μM, 15 h
# Procedure: (§1) To further test this hypothesis, the dose effects of TB on the levels of cell cycle regulatory protein were conducted in four different human cancer cell lines, COLO 205 (p53 wild type), HT 29 (p53 […] mutant), Hep 3B (p53 partial deleted) and HL 60 (p53 null). […] The cells were rendered quiescent for 24 h, and then challenged with 10% FCS and treated with various concentrations of TB (60-150 μM) for additional 15 h. Protein extracts (100 μg/lane) were separated by SDS-PAGE, probed with specific antibodies, and detected using the NBT/BCIP system. Membranes were also probed with anti-GAPDH antibody to correct for differences in protein loading. As previously described (Chen R J, et. al., Toxicology & Applied Pharmacology 2000;169(2):132-41.), the frozen tumor was pulverized in liquid N2, and then mixed with lysis buffer (Tris-HCl 0.5 M, pH 6.8, SDS 0.4%). For cell cultures, the cells were seeded onto 150-mm dishes and grown in RPMI 1640 (for COLO 205, HT 29 and HL 60 cells) or MEM (for Hep 3B) supplemented with 10% FCS. After the cells had grown to subconfluence, they were rendered quiescent. The cells were released from quiescence with culture medium supplemented with 10% FCS. TB in 0.05% DMSO or 0.05% DMSO without TB was added to the cells at various concentrations and the mixture was allowed to incubate for 17 h. Western blot analysis was performed as previously described (Chen R J, et. al., Toxicology & Applied Pharmacology 2000;169(2):132-41; Lee W S, et. al., Circulation Research 1998;82(8):845-51.). Immunodetection was carried by probing with proper dilutions of specific antibodies at room temperature for 2 h. Anti-p21/Cip1, anti-p27/Kip1, anti-p53, anti-GAPDH monoclonal antibodies (Santa Cruz, Inc. CA); anti-cyclin B1, D1, and D3, anti-cdk2 and cdk4, and PCNA monclonal antibodies (Transduction Laboratories, Lexington, Ky.) were used at a concentration of 1:1,000 dilution. Anti-cyclin A and E polyclonal antibodies (Transduction, San Diego, Calif.) were used at a concentration of 1:250 dilution. […] Sigma Chemical Co., St. Louis, Mo.). In each experiment, membranes were also probed with anti-GAPDH antibody to correct for differences in protein loading.
# [2] = system: cell cycle regulatory proteins in HT 29 cells; assay: Western blot of cell cycle regulatory proteins; format: cell-based, human; settings: TB 60-150 μM, 15 h; dose-dependent
# Procedure: as §1
# [3] = system: cell cycle regulatory proteins in Hep 3B cells; assay: Western blot of cell cycle regulatory proteins; format: cell-based, human; settings: TB 60-150 μM, 15 h
# Procedure: as §1
# [4] = system: HT 29 cells; assay: Flow cytometry (FACS) cell cycle analysis; format: cell-based, human
# [5] = system: Hep 3B cells; assay: Flow cytometry (FACS) cell cycle analysis; format: cell-based, human; settings: TB 10-150 μM, 15 h
# [6] = cited from earlier work
# [7] = daily oral 250 mg TB for 4 weeks, human study
smiles,measurement,setting,value
"CN(C/C=C/C#CC(C)(C)C)Cc1cccc2ccccc12 [TB, 1-Naphthalenemethanamine, N-(6,6-dimethyl-2-hepten-4-ynyl)-N-methyl-, (E)-]","levels of p53 and p21/Cip1 protein, dose effect",[1],did not change
same,"levels of p27/Kip1 protein, dose effect",[1]; dose-dependent,significantly increased
same,"levels of cyclin D3 and cdk4, dose effect",[2],decreased
same,"levels of p53, p21/Cip1 and p27/Kip1 protein, dose effect",[2],increased
same,"levels of p53 and p21/Cip1 protein, dose effect",[3],did not change
same,"levels of p27/Kip1 protein, dose effect",[3]; dose-dependent,significantly increased
same,accumulation of cells at the G0/G1 phase,[4]; 90 μM TB after release from quiescence,> 90%
same,"G0/G1 arrest, dose effect","[4]; various concentrations of TB, 15 h after release from quiescence, dose-dependent",induced G0/G1 arrest
same,apoptosis (presence of sub G1),[5],dose-dependently caused the occurrence of apoptosis
same,G0/G1 arrest,[5]; p53 partial deleted cells,did not induce G0/G1 arrest
same,fraction of TB absorbed,[6]; after an oral dose (250 mg),approximately 70%
same,maximum plasma concentrations,[6]; after an oral dose (250 mg),0.5 to 1.5 µg/mL
same,time to reach maximum plasma concentrations,[6]; after an oral dose (250 mg),≤ 2 h
same,plasma level of TB,[6]; [7],1700 ± 770 ng/mL
same,plasma level of TB (molar),[6]; [7],5.83 µM
